Reference: patent US12371454B2, “Cyclic peptide compound having Kras inhibitory action” (priority 2019, dated 2025)
Starred links: 1 amine or outer side, 2 acyl side, 3 side chain; linkers in the order of their positions; H or OH if unused. Positions of bridges follow the written chain, without caps; N, C: chain ends. Non-standard residues stand in square brackets, D forms with d. Residues, ends and D or L forms follow the SMILES beside them. *: point of attachment. hPhe(3-Cl-4-CF3) = N[C@@H](CCc1ccc(C(F)(F)F)c(Cl)c1)C(=O)O; X12 = CN([C@@H](Cc1ccc(C(F)(F)F)nc1)C(=O)[*:2])[*:1]; NMePhe(4-CF3) = CN[C@@H](Cc1ccc(C(F)(F)F)cc1)C(=O)O; X82 = O=C([C@H](Cc1cccc(OC(F)(F)F)c1)N[*:1])[*:2]; hPhe(4-CF3) = N[C@@H](CCc1ccc(C(F)(F)F)cc1)C(=O)O; NMeAla(4-thiazolyl) = CN[C@@H](Cc1cscn1)C(=O)O; X17 = Cc1cncc(C[C@@H](C(=O)[*:2])N(C)[*:1])c1; NMePhe(4-Cl) = CN[C@@H](Cc1ccc(Cl)cc1)C(=O)O; NMePhe(3-F) = CN[C@@H](Cc1cccc(F)c1)C(=O)O; Phe(3-Cl) = N[C@@H](Cc1cccc(Cl)c1)C(=O)O; NMeGly(cPent) = CN[C@H](C(=O)O)C1CCCC1; Phe(3-I) = N[C@@H](Cc1cccc(I)c1)C(=O)O; NMeCha = CN[C@@H](CC1CCCCC1)C(=O)O; NMeChg = CN[C@H](C(=O)O)C1CCCCC1; NMeF = CN[C@@H](Cc1ccccc1)C(=O)O; N(CH2CH2)2CF2 = FC1(F)CCN(*)CC1; NMeD = CN[C@@H](CC(=O)O)C(=O)O; NMeL = CN[C@@H](CC(C)C)C(=O)O; NMeV = CN[C@H](C(=O)O)C(C)C; d(β3hA) = C[C@@H](N)CC(=O)O; NMeA = CN[C@@H](C)C(=O)O; NMeAib = CNC(C)(C)C(=O)O; Nle = CCCC[C@H](N)C(=O)O; Piperidide = C1CCN(*)CC1; Pyrrolidide = C1CCN(*)C1; dNMeA = CN[C@H](C)C(=O)O; Ac5c = NC1(C(=O)O)CCCC1; Aze = O=C(O)[C@@H]1CCN1; Nva = CCC[C@H](N)C(=O)O; CH2CMe2OH = CC(C)(O)C*; Ac3c = NC1(C(=O)O)CC1; NEtG = CCNCC(=O)O; Sar = CNCC(=O)O

The compounds below were run against T1, Kras and SOS1 (biotin-tagged human Kras loaded with GDP, His-tagged human SOS1) (Homo sapiens, UniProt P01116, G12D) (assay: Protein-protein interaction inhibition between Kras and SOS1 (KrasGl2D-SOS PPI) using AlphaScreen). Details: AlphaScreen; biotin-tagged human Kras loaded with GDP, His-tagged human SOS1; read-out: KRAS G12D-SOS PPI IC50.
T1 construct: made in house; host or cells: E. coli (stated for Kras only)
Assay type: binding
How it was run: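 Donor beads (nickel) hold His-SOS1; acceptor beads (streptavidin) hold biotin-Kras bound to GDP. Signal measured at 520-620 nm following 680 nm excitation.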

T1 sequence (P01116 1-188 isoform P01116-2 G12D): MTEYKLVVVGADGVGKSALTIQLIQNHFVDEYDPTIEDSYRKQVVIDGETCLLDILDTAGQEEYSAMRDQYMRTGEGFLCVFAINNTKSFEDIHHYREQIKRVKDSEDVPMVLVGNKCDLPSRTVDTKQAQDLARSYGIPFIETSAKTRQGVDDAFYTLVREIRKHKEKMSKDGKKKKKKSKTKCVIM

SMILES	IC50 [nM]
CC[C@H](C)[C@@H]1NC(=O)[C@H](CC(C)C)N(C)C(=O)C[C@@H](C(=O)N2CCCCC2)N(C)C(=O)[C@H](C(C)C)N(C)C(=O)C2(CC2)NC(=O)[C@@H]2CCCN2C(=O)[C@H](CCc2ccc(C(F)(F)F)c(Cl)c2)NC(=O)CN(C)C(=O)[C@H](CC2CCCCC2)N(C)C(=O)CN(C)C(=O)CN(C)C1=O [Compound 468] ([NMeL]I[Sar][Sar][NMeCha][Sar][hPhe(3-Cl-4-CF3)]P[Ac3c][NMeV][NMeD]-Piperidide; lactam N-11)	2.5
CC[C@H](C)[C@@H]1NC(=O)[C@H](C)N(C)C(=O)C[C@@H](C(=O)N2CCCCC2)NC(=O)[C@H](CC(C)C)N(C)C(=O)[C@H](Cc2ccccc2)N(C)C(=O)[C@H](CC(C)C)NC(=O)[C@H](Cc2cccc(OC(F)(F)F)c2)NC(=O)CN(C)C(=O)[C@H](Cc2ccc(Cl)cc2)N(C)C(=O)CN(C)C(=O)CN(C)C1=O [Compound 473] ([NMeA]I[Sar][Sar][NMePhe(4-Cl)][Sar][X82]L[NMeF][NMeL]D-Piperidide; lactam N-11)	410
CC[C@H](C)[C@@H]1NC(=O)[C@H](CC(C)C)N(C)C(=O)C[C@@H](C(=O)N2CCCCC2)N(C)C(=O)[C@H](C2CCCCC2)N(C)C(=O)C2(CCCC2)NC(=O)[C@H](Cc2cncc(C)c2)N(C)C(=O)[C@H](CCc2ccc(C(F)(F)F)c(Cl)c2)NC(=O)CN(C)C(=O)[C@H](CC2CCCCC2)N(C)C(=O)[C@@H]2CCN2C(=O)CN(C)C1=O [Compound 477] ([NMeL]I[Sar][Aze][NMeCha][Sar][hPhe(3-Cl-4-CF3)][X17][Ac5c][NMeChg][NMeD]-Piperidide; lactam N-11)	4.3
CC[C@H](C)[C@@H]1NC(=O)[C@H](CC(C)C)N(C)C(=O)C[C@@H](C(=O)N2CCCCC2)N(C)C(=O)[C@H](C2CCCCC2)N(C)C(=O)C2(CCCC2)NC(=O)[C@H](Cc2ccc(C(F)(F)F)nc2)N(C)C(=O)[C@H](CCc2ccc(C(F)(F)F)c(Cl)c2)NC(=O)CN(C)C(=O)[C@H](CC2CCCCC2)N(C)C(=O)[C@@H]2CCN2C(=O)[C@H](C)N(C)C1=O [Compound 479] ([NMeL]I[NMeA][Aze][NMeCha][Sar][hPhe(3-Cl-4-CF3)][X12][Ac5c][NMeChg][NMeD]-Piperidide; lactam N-11)	300
CC[C@H](C)[C@@H]1NC(=O)[C@H](C)N(C)C(=O)C[C@@H](C)NC(=O)[C@H](C2CCCC2)N(C)C(=O)C2(CCCC2)NC(=O)[C@@H]2CCCN2C(=O)[C@H](CCc2ccc(C(F)(F)F)c(Cl)c2)NC(=O)[C@@H](C)N(C)C(=O)[C@H](Cc2ccccc2)N(C)C(=O)CN(C)C(=O)CN(C)C1=O [Compound 482] (cyclo([Ac5c][NMeGly(cPent)][d(β3hA)][NMeA]I[Sar][Sar][NMeF][dNMeA][hPhe(3-Cl-4-CF3)]P))	170
CCCC[C@@H]1NC(=O)[C@H](Cc2cccc(I)c2)NC(=O)CN(C)C(=O)[C@H](Cc2ccc(Cl)cc2)N(C)C(=O)CN(C)C(=O)CN(C)C(=O)[C@H]([C@@H](C)CC)NC(=O)[C@H](CC(C)C)N(C)C(=O)C[C@@H](C(=O)N2CCCCC2)N(C)C(=O)[C@H](CC(C)C)NC(=O)[C@H](Cc2cccc(F)c2)N(C)C1=O [Compound 483] ([NMeL]I[Sar][Sar][NMePhe(4-Cl)][Sar][Phe(3-I)][Nle][NMePhe(3-F)]L[NMeD]-Piperidide; lactam N-11)	17
CC[C@H](C)[C@@H]1NC(=O)[C@H](CC(C)C)N(C)C(=O)C[C@@H](C(=O)N2CCCCC2)N(C)C(=O)[C@H](C(C)C)N(C)C(=O)[C@@H](C)NC(=O)[C@H](CC(=O)N2CCC(F)(F)CC2)N(C)C(=O)[C@H](CCc2ccc(C(F)(F)F)c(Cl)c2)NC(=O)CN(C)C(=O)[C@H](CC2CCCCC2)N(C)C(=O)CN(C)C(=O)CN(C)C1=O [Compound 493] ([NMeL]I[Sar][Sar][NMeCha][Sar][hPhe(3-Cl-4-CF3)][NMeD](N(CH2CH2)2CF2)[dA][NMeV][NMeD]-Piperidide; lactam N-11)	300
CCC[C@@H]1NC(=O)[C@H](CC(C)C)N(C)C(=O)C[C@@H](C(=O)N2CCCCC2)N(C)C(=O)[C@H](C2CCCCC2)N(C)C(=O)C2(CCCC2)NC(=O)[C@@H]2CCCN2C(=O)[C@H](CCc2ccc(C(F)(F)F)c(Cl)c2)NC(=O)CN(C)C(=O)[C@H](CC2CCCCC2)N(C)C(=O)CN(C)C(=O)CN(C)C1=O [Compound 495] ([NMeL][Nva][Sar][Sar][NMeCha][Sar][hPhe(3-Cl-4-CF3)]P[Ac5c][NMeChg][NMeD]-Piperidide; lactam N-11)	3.2
CCCC[C@@H]1NC(=O)[C@H](Cc2cccc(I)c2)NC(=O)CN(C)C(=O)[C@H](Cc2ccc(Cl)cc2)N(C)C(=O)CN(C)C(=O)CN(C)C(=O)[C@H]([C@@H](C)CC)NC(=O)[C@H](CC(C)C)N(C)C(=O)C[C@@H](C(=O)N2CCCCC2)N(C)C(=O)[C@H](CC(C)C)NC(=O)[C@H](Cc2ccc(C(F)(F)F)cc2)N(C)C1=O [Compound 498] ([NMeL]I[Sar][Sar][NMePhe(4-Cl)][Sar][Phe(3-I)][Nle][NMePhe(4-CF3)]L[NMeD]-Piperidide; lactam N-11)	49
CC[C@H](C)[C@@H]1NC(=O)[C@H](C)N(C)C(=O)C[C@@H](C(=O)N2CCCC2)NC(=O)[C@H](CC(C)C)NC(=O)[C@H](Cc2ccccc2)N(C)C(=O)[C@H](CC(C)C)NC(=O)[C@H](Cc2cccc(Cl)c2)NC(=O)CN(C)C(=O)[C@H](Cc2ccc(Cl)cc2)N(C)C(=O)CN(C)C(=O)CN(C)C1=O [Compound 499] ([NMeA]I[Sar][Sar][NMePhe(4-Cl)][Sar][Phe(3-Cl)]L[NMeF]LD-Pyrrolidide; lactam N-11)	85
CC[C@H](C)[C@@H]1NC(=O)[C@H](CC(C)C)N(C)C(=O)C[C@@H](C(=O)N2CCCCC2)N(C)C(=O)[C@H](C2CCCCC2)N(C)C(=O)C2(CCCC2)NC(=O)[C@H](Cc2cscn2)N(C)C(=O)[C@H](CCc2ccc(C(F)(F)F)c(Cl)c2)NC(=O)CN(C)C(=O)[C@H](CC2CCCCC2)N(C)C(=O)CN(C)C(=O)CN(C)C1=O [Compound 500] ([NMeL]I[Sar][Sar][NMeCha][Sar][hPhe(3-Cl-4-CF3)][NMeAla(4-thiazolyl)][Ac5c][NMeChg][NMeD]-Piperidide; lactam N-11)	4.8
CC[C@H](C)[C@@H]1NC(=O)[C@H](C)N(C)C(=O)C[C@@H](C(=O)N2CCCC2)NC(=O)[C@H](CC(C)C)N(C)C(=O)[C@H](Cc2ccccc2)N(C)C(=O)[C@H](COCC(C)(C)O)NC(=O)[C@H](CCc2ccc(C(F)(F)F)cc2)NC(=O)CN(C)C(=O)[C@H](Cc2ccc(Cl)cc2)N(C)C(=O)CN(C)C(=O)CN(C)C1=O [Compound 502] ([NMeA]I[Sar][Sar][NMePhe(4-Cl)][Sar][hPhe(4-CF3)]S(CH2CMe2OH)[NMeF][NMeL]D-Pyrrolidide; lactam N-11)	47
CC[C@H](C)[C@@H]1NC(=O)[C@H](CC(C)C)N(C)C(=O)C[C@@H](C)NC(=O)[C@H](C(C)C)N(C)C(=O)C2(CCCC2)NC(=O)[C@@H]2CCCN2C(=O)[C@H](CCc2ccc(C(F)(F)F)c(Cl)c2)NC(=O)CN(C)C(=O)[C@H](CC2CCCCC2)N(C)C(=O)CN(CC)C(=O)CN(C)C1=O [Compound 504] (cyclo([Ac5c][NMeV][d(β3hA)][NMeL]I[Sar][NEtG][NMeCha][Sar][hPhe(3-Cl-4-CF3)]P))	53
CC[C@H](C)[C@@H]1NC(=O)[C@H](C)N(C)C(=O)C[C@@H](C(=O)N2CCCCC2)N(C)C(=O)[C@H](C(C)C)N(C)C(=O)C(C)(C)N(C)C(=O)[C@@H]2CCCN2C(=O)[C@H](CCc2ccc(C(F)(F)F)c(Cl)c2)NC(=O)CN(C)C(=O)[C@H](CC2CCCCC2)N(C)C(=O)CN(C)C(=O)CN(C)C1=O [Compound 507] ([NMeA]I[Sar][Sar][NMeCha][Sar][hPhe(3-Cl-4-CF3)]P[NMeAib][NMeV][NMeD]-Piperidide; lactam N-11)	0.48
